Measured values published in patent publication US4719297A, “Acylphosphine compounds and their use as photoinitiators” (priority 1981, dated 1988).
Like-named read-outs stand apart in the source and are kept apart here.

Assays:
[1] = Hardening activity of UP resin C under UV light, temperature/time curve (Table 2); details: 0.2% compound
Method: (§1) To measure the hardening activity, the temperature curve for the unsaturated polyester resin (UP resin) was recorded during exposure to UV light. […] To avoid heat losses during the exposure to UV light, the lid was embedded in rigid expanded polyurethane foam. The UV light source used comprised 5 fluorescent tubes (TLAK 40 W/05 from Philips) side by side, at a distance of 8.5 cm from the UP resin surface.
(§2) The hardening time HT25° C.-T.sbsb.max and the maximum hardening temperature Tmax achieved were obtained, as characteristic parameters for the hardening activity, from the recorded temperature/time curves. The hardening time is the interval in which the sample temperature increases from 25° C. to Tmax.
(§3) The Examples and Comparative Examples were carried out using the following unsaturated polyester resins:
Resin C was a 66% strength solution, in styrene, of an unsaturated polyester of maleic acid, o-phthalic acid and propylene 1,2-glycol in the molar ratio of 1:0.5:1.5, the solution being stabilized with 0.01% of hydroquinone.
(§4) The hardening activity of the novel compounds 1 to 16 (cf. Table 1) was compared with the properties of the following compounds: […]

[2] = Hardening rate of UV-exposed finish by Konig pendulum method (DIN 53,157) (Table 4); details: for Damping of pendulum: 2 parts photoinitiator
Method: An unsaturated polyester was prepared by esterifying 143 parts of tetrahydrophthalic anhydride and 175 parts of maleic anhydride with 260 parts of diethylene glycol. 0.01% of hydroquinone was added, and thereafter a 64% strength solution of the polyester in styrene was prepared (solution D).
For the UV hardening experiments, 10 parts of styrene and 2 parts of the photoinitiator were added to 100 parts of solution D, and the finish was applied to photographic paper on a hardboard base by means of a film spreader (slotwidth 200 μm)
The film was dried in air for about 1 minute and then exposed to light from a 30 watt high pressure mercury vapor lamp of 1 cm arc length (Philips HTQ 7) located 15 cm above the object.
The hardening rate was determined by the Konig pendulum method (DIN 53,157), and is given in Table 4 together with the color measurements carried out on the hardened films.
The numbering scheme for the photoinitiators is based on that of Table 1 and Example 6.

[3] = type: physicochemical; details: 80° C., closed ampoule
Method: 294 parts of partially hydrolyzed polyvinyl acetate (degree of hydrolysis 82 mole %, average degree of polymerization 500) were dissolved in 294 parts of demineralized water at 90° C. by stirring the mixture for several hours. The solution was cooled to 70° C., and therafter 20 parts of 1,1,1-trimethylolpropane triacrylate, 1,0 part of 2,6-di-tert.-butyl-p-cresol and the amount of photoinitiator given in table 6, dissolved in 230 parts of 2-hydroxyethyl methacrylate, were added, with stirring. The homogeneous viscous solution was filtered, and dehydrated and degassed under reduced pressure. A 550 μm thick, nontacky layer was obtained by applying the solution onto steel sheet provided with an adhesive, and drying the layer for 24 hours at room temperature. The printing plate was pre-exposed for 2 seconds and thereafter exposed inagewise, through a negative, to light from a commercial 5 kW exposure unit for the times given in table 6.
The thermal stability of the photosensitive solutions was determined by storing a sample in a closed ampoule at 80° C. In comparison with compound V, the novel photoinitiators improved the stability of the photosensitive mixture by a factor of 2 (see Table 6), with otherwise very similar behavior.

[4] = Hardening activity of UP resin A under UV light, temperature/time curve (Table 2); details: 0.2% compound
Method: as §1, §2, §3
Resin A was a 65% strength solution, in styrene, of an unsaturated polyester of maleic acid, o-phthalic acid, ethylene glycol and propylene 1,2-glycol in the molar ratio of 1:2:2.3:0.70, the solution being stabilized with 0.01% of hydroquinone.
as §4

[5] = Hardening activity of UP resin B under UV light, temperature/time curve (Table 2); details: 0.2% compound
Method: as §1, §2, §3
Resin B was a 67% strength solution, in styrene, of an unsaturated polyester of maleic acid, tetrahydrophthalic acid and diethylene glycol in the molar ratio of 1:0.5:1.5, the solution being stabilized with 0.01% of hydroquinone.
as §4

[6] = Minimum exposure time for faultless reproduction of the 3% tonality on photopolymerizable printing plate (Table 7); details: 2 parts photoinitiator; UV about 3,300 μW/cm^2
Method: 60 parts by weight of a 1:1:1 copolyamide consisting of PA-6, PA-6.6 and PA-6.13, 30 parts by weight of ethylene glycol bis-(N-methylolacrylamide) ether, 10 parts by weight of benzenesulfonic acid N-(n-butyl)-amide, 150 parts by weight of methanol, 20 parts by weight of water, 0.02 part by weight of a chromium complex dye (CI No. 12,195), 0.3 part by weight of potassium N-nitrosocyclohexylhydroxylamine and 2 parts by weight of the photoinitiator given in Table 7 were dissolved at about 70° C. The photopolymerizable material was brought to a solids content of about 65% by distilling off part of the solvent and was then cast, at 60° C., on to a strip of steel sheet provided with an adhesive, and drying was effected in a drying oven for about 2 hours at 80° C. The resulting photopolymerizable printing plate contained a 0.5 mm thick layer with a solids content of about 95%.
Using a test negative which had, inter alia, 54 screen lines, per centimeter, of 3% tonality, the plate was exposed to a UV light intensity of about 3,300 μW/cm^2 on a flat-plate exposure unit equipped with superactinic fluorescent tubes. The unexposed parts of the plate which were protected from the UV light by the opaque image elements of the negative were then washed out in a spray washer for 5 minutes at 30° C. and under a spray pressure of 5 bar, using an ethanol/water mixture containing 80% of ethanol. The plate was thereafter dried for 6 minutes at 110° C. The minimum exposure time required for faultless reproduction of the 3% tonality was measured, and the results for various photoinitiators are summarized in Table 7.

[7] = Shelf life of UP resin B containing a photoinitiator, stored at 60° C. (Table 3); type: physicochemical; details: 0.2% initiator, dark
Method: (§5) To test the shelf life, 6.6 ml of each of the UP resins A, B and C (cf. Example 5) with an initiator content of 0.2% were introduced into brown sample bottles, and the closed bottles were stored at 60° C. At intervals of about 12 hours, the bottles were turned to determine whether gel particles had formed. As a measure of the shelf life, Table 3 gives the maximum storage time at which gel particles were still not observed.
(§6) In addition to the comparative compounds I, II and III, compound V below was also tested: V 2,4,6-trimethylbenzoyldiphenylphosphine oxide as described in U.S. Pat. No. 4,265,723.
(§7) The numbering scheme of the compounds in Table 3 is based on that of Table 1.

[8] = Shelf life of UP resin C containing a photoinitiator, stored at 60° C. (Table 3); type: physicochemical; details: 0.2% initiator, dark
Method: as §5, §6, §7

[9] = Shelf life of UP resin A containing a photoinitiator, stored at 60° C. (Table 3); type: physicochemical; details: 0.2% initiator, dark
Method: as §5, §6, §7

[10] = Photopolymerization of monomer emulsion, properties of resulting polymer dispersions (Table 5); details: for Fikentscher K value / Residual monomers, ethyl acrylate / Residual monomers, methyl acrylate / Solids content: 60 min exposure
Method: A monomer emulsion was prepared from 50 parts of methyl acrylate, 50 parts of ethyl acrylate, 1.3 parts of a 40% strength C15 -paraffin sulfonate, 1.3 parts of an adduct of isooctylphenol with 25 units of ethylene oxide (20% strength) and 210 parts of water in a conventional mixing unit.
This emulsion was introduced into a 1 l glass flask provided with an internal thermometer and a stirrer, and was freed from oxygen by twice evacuating the flask and gassing the emulsion with nitrogen. X parts of the photoinitiator in 6.7 parts of water were added, and the reaction vessel was then exposed for 60 minutes to light from a high pressure mercury vapor lamp of Type HQL/R 400 W from Osram, located 30 cm above the vessel. The beginning of polymerization was evident from an increase in the temperature. The amounts of photoinitiator employed and the properties of the resulting polymer dispersions are summerized in Table 5, photoinitiator 4 (cf. Table 1) being compared with photoinitiator VI (described in U.S. Pat. No. 4.257,859).

[11] = Shelf life of resins containing the compounds, overall comparison; type: physicochemical; details: Table 3, in words
Method: as §5, §6

[12] = Hardening activity in UP resins, overall comparison
Method: as §1, §2, §3, §4

Compound	hardening time HT 25°-Tmax [1]	maximum hardening temperature Tmax [1] [°C]	Damping of pendulum ([2]; exposure time 5 s)	Damping of pendulum ([2]; exposure time 10 s)	Damping of pendulum ([2]; exposure time 15 s)	Damping of pendulum ([2]; exposure time 20 s)	Damping of pendulum ([2]; exposure time 25 s)	hardening time HT 25°-Tmax [4]	maximum hardening temperature Tmax [4] [°C]	hardening time HT 25°-Tmax [5]	maximum hardening temperature Tmax [5] [°C]	Minimum exposure time required for reproducing the 3% tonality [6] [s]	Shelf life [7] [h]	Shelf life [8] [h]	Shelf life [9] [h]	further results
Cc1cc(C)c(C(=O)P(=O)(O)c2ccccc2)c(C)c1 [Compound 12, Methyldiethanolammonium 2,4,6-trimethylbenzoylphenylphosphinate]	5/23	123	71	92	112	122	130	6/15	116	5/08	129	–	–	–	–	hardening activity compared with compound V ([2]; Table 4, in words): substantially more active hardener; Stability ([3]; 7 parts of compound): 28 h
Cc1cc(C)c(C(=O)P(=O)(c2ccccc2)c2ccccc2)c(C)c1 [V, 2,4,6-trimethylbenzoyldiphenylphosphine oxide, reference compound]	–	–	43	66	84	102	112	–	–	–	–	190	140	120	140	Stability ([3]; 4 parts of compound): 15 h
Cc1cc(C)c(C(=O)P(=O)([O-])c2ccccc2)c(C)c1.[Na+] [Compound 4, Sodium 2,4,6-trimethylbenzoylphenylphosphinate]	5/23	122	–	–	–	–	–	5/53	117	4/37	125	115	–	–	190	Fikentscher K value ([10]; 0.04 parts X employed): 156.8; Residual monomers, ethyl acrylate ([10]; 0.04 parts X employed): 0.019%; Residual monomers, methyl acrylate ([10]; 0.04 parts X employed): 0.051%; Solids content ([10]; 0.04 parts X employed): 31.3%; Fikentscher K value ([10]; 1.7 parts X employed): 146.6; Residual monomers, ethyl acrylate ([10]; 1.7 parts X employed): < 0.005%; Residual monomers, methyl acrylate ([10]; 1.7 parts X employed): 0.005%; Solids content ([10]; 1.7 parts X employed): 31.4%; activity compared with photoinitiator VI ([10]; same K value of dispersions, in words): higher activity; content of residual monomers compared with photoinitiator VI ([10]; same starting concentration, in words): substantially lower content of residual monomers; initiation of photopolymerization at very low starting concentrations ([10]; very low starting concentrations, in words): permits photopolymerization even at very low starting concentrations; Stability ([3]; 6 parts of compound): 34 h; shelf life of resins compared with compounds II, III and V [11]: substantially superior; shelf life of resins compared with resins containing I [11]: not significantly different
COP(=O)([O-])C(C)=O.[Na+] [IV, monosodium monomethylacetylphosphonate, reference compound]	–	–	–	–	–	–	–	13/15	30	–	–	–	–	–	–	suitability for photohardening ([12]; Table 2, in words): unsuitable for photohardening; hardening outcome (footnote to Tmax) [4]: not hardened
COP(=O)(C(=O)c1c(C)cc(C)cc1C)c1ccccc1 (centres unmarked) [I, methyl 2,4,6-trimethybenzoylphenylphosphinate, reference compound]	6/53	123	–	–	–	–	–	7/45	114	5/23	127	–	155	180	180	hardening activity compared with the novel compounds ([12]; see Example 5, in words): substantially less active hardener
